This passage reports Activity results from ChEMBL document CHEMBL2074070, “Circumvention of breast cancer resistance protein (BCRP)-mediated resistance to camptothecins in vitro using non-substrate drugs or the BCRP inhibitor GF120918” (Clin Cancer Res, 2001).

Format in all cases: functional, cell-based
Data set [1] deals with T1, Broad substrate specificity ATP-binding cassette transporter ABCG2 (Homo sapiens, UniProt Q9UNQ0).
T1 sequence (Q9UNQ0 whole entry): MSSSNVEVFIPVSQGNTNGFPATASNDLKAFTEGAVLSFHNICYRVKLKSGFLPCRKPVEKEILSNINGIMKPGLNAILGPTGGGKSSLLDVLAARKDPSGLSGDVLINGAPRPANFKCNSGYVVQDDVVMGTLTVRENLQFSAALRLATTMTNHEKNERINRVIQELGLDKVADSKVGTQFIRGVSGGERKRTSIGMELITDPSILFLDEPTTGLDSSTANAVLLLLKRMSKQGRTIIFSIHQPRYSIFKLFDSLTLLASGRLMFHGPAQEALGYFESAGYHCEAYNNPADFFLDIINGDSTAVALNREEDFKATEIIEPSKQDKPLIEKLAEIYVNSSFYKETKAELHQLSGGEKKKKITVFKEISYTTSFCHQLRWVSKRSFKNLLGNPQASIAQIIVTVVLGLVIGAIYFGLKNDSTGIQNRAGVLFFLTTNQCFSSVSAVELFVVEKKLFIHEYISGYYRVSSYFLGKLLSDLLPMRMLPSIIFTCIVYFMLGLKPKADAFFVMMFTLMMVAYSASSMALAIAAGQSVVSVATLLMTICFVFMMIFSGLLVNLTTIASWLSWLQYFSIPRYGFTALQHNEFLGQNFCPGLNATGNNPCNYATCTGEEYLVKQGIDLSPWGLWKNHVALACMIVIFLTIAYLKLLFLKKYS
Nature of the data set: TP_TRANSPORTER: increase in intracellular accumulation by GF120918 in T8 cell.

Data set [2] has as its target T1, Broad substrate specificity ATP-binding cassette transporter ABCG2. Nature of the data set: TP_TRANSPORTER: increase of cytotoxicity by GF120918 in T8 cells.
Data set [3] has the same target. Nature of the data set: TP_TRANSPORTER: increase of cytotoxicity by GF120918 in MX3 cells.
Data set [4] shares this target. Nature of the data set: TP_TRANSPORTER: increase in Topotecan intracellular accumulation (Topotecan: 1.9 uM, GF120918: 2 uM) in MX3 cells.
Data set [5] shares this target. Nature of the data set: TP_TRANSPORTER: increase in Topotecan intracellular accumulation (Topotecan: 1.9 uM, GF120918: 2 uM) in T8 cells.

Take `CC[C@@]1(O)C(=O)OCc2c1cc1n(c2=O)Cc2cc3c(CN(C)C)c(O)ccc3nc2-1` [TOPOTECAN]: in data set [1], the Activity result is “substrate [+]”.
As for `CC[C@@]1(O)C(=O)OCc2c1cc1n(c2=O)Cc2c-1nc1cc(F)c(C)c3c1c2[C@@H](N)CC3` [EXATECAN], the Activity entry in data set [2] and in data set [3] was “substrate []” each time.
In the case of `COc1cc2c(cc1OC)CN(CCc1ccc(NC(=O)c3cccc4c(=O)c5cccc(OC)c5[nH]c34)cc1)CC2.Cl` [ELACRIDAR HYDROCHLORIDE], the Activity entry in data set [4] and in data set [5] was “inhibitor [+]” throughout.
